Test results: ChEMBL document CHEMBL1144462, “Spread in an Italian hospital of a clonal Acinetobacter baumannii strain producing the TEM-92 extended-spectrum beta-lactamase” (2007)

What was measured:
Acinetobacter baumannii [1] = experiment: Antibacterial activity against TEM92 ESBL-producing Acinetobacter baumannii by CLSI method; type: functional
Acinetobacter baumannii [2] = experiment: Antibacterial activity against Acinetobacter baumannii by CLSI method; type: functional

Molecule | MIC (Acinetobacter baumannii [1]) [µg/mL] | MIC (Acinetobacter baumannii [2]) [µg/mL]
NCC[C@H](O)C(=O)N[C@@H]1C[C@H](N)[C@@H](O[C@H]2O[C@H](CN)[C@@H](O)[C@H](O)[C@H]2O)[C@H](O)[C@H]1O[C@H]1O[C@H](CO)[C@@H](O)[C@H](N)[C@H]1O [AMIKACIN] | ≤ 8 | –
CC(C)(O/N=C(\C(=O)N[C@@H]1C(=O)N2C(C(=O)[O-])=C(C[n+]3ccccc3)CS[C@H]12)c1csc(N)n1)C(=O)O [CEFTAZIDIME] | > 128 | ≥ 16
NC[C@H]1O[C@H](O[C@H]2[C@H](O)[C@@H](O[C@H]3O[C@H](CO)[C@@H](O)[C@H](N)[C@H]3O)[C@H](N)C[C@@H]2N)[C@H](N)C[C@@H]1O [TOBRAMYCIN] | > 32 | –
C[C@@H](O)[C@H]1C(=O)N2C(C(=O)O)=C(SCCNC=N)C[C@H]12 [IMIPENEM ANHYDROUS] | ≤ 1 | ≥ 8
CO/N=C(\C(=O)N[C@@H]1C(=O)N2C(C(=O)O)=C(CSc3nc(=O)c(O)nn3C)CS[C@H]12)c1csc(N)n1 [CEFTRIAXONE] | > 128 | –
C[C@@H](O)[C@H]1C(=O)N2C(C(=O)O)=C(S[C@@H]3CN[C@H](C(=O)N(C)C)C3)[C@H](C)[C@H]12 [MEROPENEM] | ≤ 2 | –
C[C@H]1COc2c(N3CCN(C)CC3)c(F)cc3c(=O)c(C(=O)O)cn1c23.C[C@H]1COc2c(N3CCN(C)CC3)c(F)cc3c(=O)c(C(=O)O)cn1c23.O [LEVOFLOXACIN] | > 32 | –
GENTAMICIN | > 128 | –
CCN1CCN(C(=O)N[C@@H](C(=O)N[C@@H]2C(=O)N3[C@@H]2SC(C)(C)[C@@H]3C(=O)O)c2ccccc2)C(=O)C1=O [PIPERACILLIN] | > 128 | –
CO/N=C(\C(=O)N[C@@H]1C(=O)N2C(C(=O)O)=C(COC(C)=O)CS[C@H]12)c1csc(N)n1 [CEFOTAXIME] | > 128 | ≥ 16
